{
  "source": "the NIST ThermoML archive (doi:10.1016/j.tca.2012.11.015)",
  "test": "molar heat capacity at constant pressure",
  "details": "101.33 kPa, Crystal, Small sample (50 mg) DSC",
  "note": "± gives the expanded uncertainty stated by the source.",
  "data": [
    {"smiles": "[F-].[F-].[F-].[F-].[Li+].[Lu+3]", "note": "[lithium lutetium fluoride]", "values": [
      {"measurement": "molar heat capacity at constant pressure", "setting": "491.4 K", "result": "146.9 ± 2.9", "unit": "J/K/mol"},
      {"measurement": "molar heat capacity at constant pressure", "setting": "494 K", "result": "147.09 ± 2.9", "unit": "J/K/mol"},
      {"measurement": "molar heat capacity at constant pressure", "setting": "496.6 K", "result": "147.19 ± 2.9", "unit": "J/K/mol"},
      {"measurement": "molar heat capacity at constant pressure", "setting": "499.2 K", "result": "147.37 ± 3", "unit": "J/K/mol"},
      {"measurement": "molar heat capacity at constant pressure", "setting": "501.8 K", "result": "147.62 ± 3", "unit": "J/K/mol"},
      {"measurement": "molar heat capacity at constant pressure", "setting": "504.4 K", "result": "147.87 ± 3", "unit": "J/K/mol"},
      {"measurement": "molar heat capacity at constant pressure", "setting": "506.9 K", "result": "148.03 ± 3", "unit": "J/K/mol"},
      {"measurement": "molar heat capacity at constant pressure", "setting": "509.5 K", "result": "148.01 ± 3", "unit": "J/K/mol"},
      {"measurement": "molar heat capacity at constant pressure", "setting": "512.1 K", "result": "148.31 ± 3", "unit": "J/K/mol"},
      {"measurement": "molar heat capacity at constant pressure", "setting": "514.7 K", "result": "148.51 ± 3", "unit": "J/K/mol"},
      {"measurement": "molar heat capacity at constant pressure", "setting": "517.2 K", "result": "148.78 ± 3", "unit": "J/K/mol"},
      {"measurement": "molar heat capacity at constant pressure", "setting": "519.8 K", "result": "148.72 ± 3", "unit": "J/K/mol"},
      {"measurement": "molar heat capacity at constant pressure", "setting": "522.4 K", "result": "148.99 ± 3", "unit": "J/K/mol"},
      {"measurement": "molar heat capacity at constant pressure", "setting": "524.9 K", "result": "149.11 ± 3", "unit": "J/K/mol"},
      {"measurement": "molar heat capacity at constant pressure", "setting": "527.5 K", "result": "149.23 ± 3", "unit": "J/K/mol"},
      {"measurement": "molar heat capacity at constant pressure", "setting": "530 K", "result": "149.4 ± 3", "unit": "J/K/mol"},
      {"measurement": "molar heat capacity at constant pressure", "setting": "532.6 K", "result": "149.69 ± 3", "unit": "J/K/mol"},
      {"measurement": "molar heat capacity at constant pressure", "setting": "535.1 K", "result": "149.98 ± 3", "unit": "J/K/mol"},
      {"measurement": "molar heat capacity at constant pressure", "setting": "537.6 K", "result": "150.02 ± 3", "unit": "J/K/mol"},
      {"measurement": "molar heat capacity at constant pressure", "setting": "540.2 K", "result": "150.02 ± 3", "unit": "J/K/mol"},
      {"measurement": "molar heat capacity at constant pressure", "setting": "542.7 K", "result": "150.2 ± 3", "unit": "J/K/mol"},
      {"measurement": "molar heat capacity at constant pressure", "setting": "545.2 K", "result": "150.41 ± 3", "unit": "J/K/mol"},
      {"measurement": "molar heat capacity at constant pressure", "setting": "547.8 K", "result": "150.44 ± 3", "unit": "J/K/mol"},
      {"measurement": "molar heat capacity at constant pressure", "setting": "550.3 K", "result": "150.65 ± 3", "unit": "J/K/mol"},
      {"measurement": "molar heat capacity at constant pressure", "setting": "552.8 K", "result": "150.77 ± 3", "unit": "J/K/mol"},
      {"measurement": "molar heat capacity at constant pressure", "setting": "555.4 K", "result": "150.97 ± 3", "unit": "J/K/mol"},
      {"measurement": "molar heat capacity at constant pressure", "setting": "557.9 K", "result": "151.21 ± 3", "unit": "J/K/mol"},
      {"measurement": "molar heat capacity at constant pressure", "setting": "560.4 K", "result": "151.31 ± 3", "unit": "J/K/mol"},
      {"measurement": "molar heat capacity at constant pressure", "setting": "562.9 K", "result": "151.22 ± 3", "unit": "J/K/mol"},
      {"measurement": "molar heat capacity at constant pressure", "setting": "565.4 K", "result": "151.35 ± 3", "unit": "J/K/mol"},
      {"measurement": "molar heat capacity at constant pressure", "setting": "567.9 K", "result": "151.77 ± 3", "unit": "J/K/mol"},
      {"measurement": "molar heat capacity at constant pressure", "setting": "570.4 K", "result": "152.1 ± 3", "unit": "J/K/mol"},
      {"measurement": "molar heat capacity at constant pressure", "setting": "572.9 K", "result": "151.97 ± 3", "unit": "J/K/mol"},
      {"measurement": "molar heat capacity at constant pressure", "setting": "575.4 K", "result": "152.01 ± 3", "unit": "J/K/mol"},
      {"measurement": "molar heat capacity at constant pressure", "setting": "577.9 K", "result": "152.43 ± 3", "unit": "J/K/mol"},
      {"measurement": "molar heat capacity at constant pressure", "setting": "580.4 K", "result": "152.52 ± 3", "unit": "J/K/mol"},
      {"measurement": "molar heat capacity at constant pressure", "setting": "582.9 K", "result": "152.55 ± 3", "unit": "J/K/mol"},
      {"measurement": "molar heat capacity at constant pressure", "setting": "585.4 K", "result": "152.99 ± 3.1", "unit": "J/K/mol"},
      {"measurement": "molar heat capacity at constant pressure", "setting": "587.9 K", "result": "153.06 ± 3.1", "unit": "J/K/mol"},
      {"measurement": "molar heat capacity at constant pressure", "setting": "590.4 K", "result": "153.4 ± 3.1", "unit": "J/K/mol"},
      {"measurement": "molar heat capacity at constant pressure", "setting": "592.8 K", "result": "153.37 ± 3.1", "unit": "J/K/mol"},
      {"measurement": "molar heat capacity at constant pressure", "setting": "595.3 K", "result": "153.54 ± 3.1", "unit": "J/K/mol"},
      {"measurement": "molar heat capacity at constant pressure", "setting": "597.8 K", "result": "153.59 ± 3.1", "unit": "J/K/mol"},
      {"measurement": "molar heat capacity at constant pressure", "setting": "600.3 K", "result": "153.68 ± 3.1", "unit": "J/K/mol"},
      {"measurement": "molar heat capacity at constant pressure", "setting": "602.8 K", "result": "153.91 ± 3.1", "unit": "J/K/mol"},
      {"measurement": "molar heat capacity at constant pressure", "setting": "605.3 K", "result": "153.92 ± 3.1", "unit": "J/K/mol"},
      {"measurement": "molar heat capacity at constant pressure", "setting": "607.7 K", "result": "153.98 ± 3.1", "unit": "J/K/mol"},
      {"measurement": "molar heat capacity at constant pressure", "setting": "610.2 K", "result": "154.22 ± 3.1", "unit": "J/K/mol"},
      {"measurement": "molar heat capacity at constant pressure", "setting": "612.7 K", "result": "154.27 ± 3.1", "unit": "J/K/mol"},
      {"measurement": "molar heat capacity at constant pressure", "setting": "615.2 K", "result": "154.37 ± 3.1", "unit": "J/K/mol"},
      {"measurement": "molar heat capacity at constant pressure", "setting": "617.6 K", "result": "154.5 ± 3.1", "unit": "J/K/mol"},
      {"measurement": "molar heat capacity at constant pressure", "setting": "620.1 K", "result": "154.88 ± 3.1", "unit": "J/K/mol"},
      {"measurement": "molar heat capacity at constant pressure", "setting": "622.6 K", "result": "154.95 ± 3.1", "unit": "J/K/mol"},
      {"measurement": "molar heat capacity at constant pressure", "setting": "625.1 K", "result": "154.9 ± 3.1", "unit": "J/K/mol"},
      {"measurement": "molar heat capacity at constant pressure", "setting": "627.5 K", "result": "155.19 ± 3.1", "unit": "J/K/mol"},
      {"measurement": "molar heat capacity at constant pressure", "setting": "630 K", "result": "155.25 ± 3.1", "unit": "J/K/mol"},
      {"measurement": "molar heat capacity at constant pressure", "setting": "632.5 K", "result": "155.38 ± 3.1", "unit": "J/K/mol"},
      {"measurement": "molar heat capacity at constant pressure", "setting": "634.9 K", "result": "155.28 ± 3.1", "unit": "J/K/mol"},
      {"measurement": "molar heat capacity at constant pressure", "setting": "637.4 K", "result": "155.32 ± 3.1", "unit": "J/K/mol"},
      {"measurement": "molar heat capacity at constant pressure", "setting": "639.9 K", "result": "155.57 ± 3.1", "unit": "J/K/mol"},
      {"measurement": "molar heat capacity at constant pressure", "setting": "642.3 K", "result": "155.79 ± 3.1", "unit": "J/K/mol"},
      {"measurement": "molar heat capacity at constant pressure", "setting": "644.8 K", "result": "156.13 ± 3.1", "unit": "J/K/mol"}
    ]}
  ]
}
